These results are taken from patent US20110117038A1, “Dopa Oxidase Inhibitor, Skin-Lightening Agent and External Preparation for Skin” (Kao Corporation, priority 2009, published 2011).

The target in this assay is T1, dopa oxidase activity (tyrosinase) of human neonatal foreskin-derived melanocytes (Homo sapiens, UniProt P14679).
T1 construct: The cells were lysed for 3 hours at 4° C., and the dopa oxidase activity was measured; endogenous in cells; host or cells: human neonatal foreskin-derived melanocytes (primary), lysed with NP-40/SDS extraction buffer
T1 sequence (P14679 19-529): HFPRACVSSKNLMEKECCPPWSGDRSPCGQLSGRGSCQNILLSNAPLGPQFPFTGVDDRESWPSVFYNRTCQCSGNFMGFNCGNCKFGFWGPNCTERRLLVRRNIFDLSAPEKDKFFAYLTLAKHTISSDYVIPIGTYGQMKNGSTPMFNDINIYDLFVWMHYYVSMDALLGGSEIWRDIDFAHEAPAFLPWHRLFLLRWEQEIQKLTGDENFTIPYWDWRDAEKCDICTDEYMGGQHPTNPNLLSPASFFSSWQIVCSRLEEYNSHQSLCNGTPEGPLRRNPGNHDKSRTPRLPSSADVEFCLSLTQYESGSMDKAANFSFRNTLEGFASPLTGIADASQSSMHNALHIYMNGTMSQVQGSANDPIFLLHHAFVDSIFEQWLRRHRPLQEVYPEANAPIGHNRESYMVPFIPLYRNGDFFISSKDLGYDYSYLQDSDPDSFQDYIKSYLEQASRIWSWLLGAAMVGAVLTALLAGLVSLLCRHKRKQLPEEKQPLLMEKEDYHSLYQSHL
Put plainly: Measurement of dopa oxidase activity (MBTH method) in lysate of treated melanocytes. The class given is cell-based. The following applies: read-out: Dopa oxidase activity (%).

Method: 100 μL of human neonatal foreskin-derived melanocytes were inoculated on each well of a 96-well plate to be a cell density of 1×10^4 cells/well. The medium used therein was Medium 254 to which HMGS (Human Melanocyte Growth Supplement) excluding PMA (all manufactured by Cascade Biologics Inc.) was added.
After culturing the cells for 24 hours, endothelin-1 (ET-1) which is a melanocyte activator, stem cell growth factor (SCF), α-melanocyte stimulating hormone (α-MSH), histamine and prostaglandin E2 (PGE2) were mixed and added to the each culture at a final concentration in medium of 10×10^−7 mol/m^3 in each. […]
The melanocytes which had been used in the measurement of the cell proliferation activity were washed with Phosphate-buffered saline (PBS) from which Ca^2+ and Mg^2+ had been eliminated, and 20 μL/well of an extraction buffer (0.1 M Tris-HCl (pH 7.2), 1% Nonidet P-40, 0.01% SDS, 100 μM phenylmethylsulfonyl fluoride (PMSF) and 1 μg/ml aprotinin) and 20 μL/well of an assay buffer (100 mM Sodium phosphate-buffer (pH 7.1) containing 4% dimethylformamide) were added to the cells. The cells were lysed for 3 hours at 4° C., and its dopa oxidase activity was measured. […]
Further, the values of the dopa oxidase activity are indicated as values relative to the absorbances of the instances where various plant extracts were not added. […]

For `CC(=O)O[C@@H]1C[C@H](O)[C@@]23CO[C@@H](O)[C@]1(C)[C@@H]2C[C@@H](O)[C@]1(C)[C@@H]3C(=O)[C@H](OC(C)=O)[C@@]2(C)[C@H](c3ccoc3)C[C@H]3O[C@]321` [Toosendanin], the activity at 0.1 µM turned out to be 15%.
